This data set deals with mature atrophic post-Acne facial scarring. Kind of data set: randomized, triple-blind study in mature atrophic post-Acne facial scarring (Example 7). In kind it is in vivo, human. Details: transient reduction in vision (adverse event, one patient): unit not given here. The method, then: A randomized, triple-blind study was conducted on 35 patients in two sites in India (Amritsar and Faridkot). Ethnic skin patients (Fitzpatrick 4-5) with mature atrophic post-Acne facial scarring (scar age >2 years) were randomly assigned to one of four study arms: topical Topiramate 5.0% (n=10), topical Topiramate 2.5% (n=9), oral Topiramate 25 mg (n=8) and topical placebo (n=7). Patients applied the topical formulation once a day on both cheeks for 3 months. Clinical assessment was performed at 6 weeks and 3 months using a visual analog scale (VAS) by the patients and 3 independent observers (2 plastic surgeons and 1 general surgeon) who scored side-by-side cheek photos (before and after treatment).
Thirty five patients completed the study, and a total of 57 cheeks (topical Topiramate 5%—n=18; topical Topiramate 2.5%—n=19; oral Topiramate—n=13; topical Placebo—n=7) were evaluated and scored.

In the case of `CC1(C)O[C@@H]2[C@@H](CO[C@@]3(COS(N)(=O)=O)OC(C)(C)O[C@@H]23)O1` [Topiramate], the “advantage of the study group over the control (topical placebo)” value is, setting by setting: (day 42) 95%; (day 90) 102%. For the same compound, the “improvement (visual analog scale, patients and 3 independent observers)” value is given as 13.91% (day 42, once a day) and 34.69% (day 90, once a day). Also, the “transient reduction in vision (adverse event, one patient)” value (from 20/20, within 2 days from starting 25 mg oral, returned to 20/20 within 7 days from stopping) was −5.00.

The record behind these values is patent publication US20140315991A1, “COMPOSITION FOR TREATMENT OF EPITHELIAL TISSUE” (NOVODERMIX INTERNATIONAL LIMITED, priority 2008, published 2014).
